Legend:
[1] = target: soluble human BACE1 catalytic domain (Homo sapiens, UniProt P56817); experiment: BACE1 HTRF FRET Assay; type: biochemical; settings: Ki calculated from IC50 using the Cheng-Prusoff equation; QSY7-APPswe-Eu substrate 200 nM final, pH 5.0, 30° C
Method: A homogeneous time-resolved FRET assay can be used to determine IC50 values for inhibitors of the soluble human BACE1 catalytic domain. […] This substrate contains an N-terminal QSY7 moiety that serves as a quencher of the C-terminal Europium fluorophore (620nm Em). […] Inhibition of BACE1 cleavage of the QSY7-APP^swe-Eu substrate by inhibitors is manifested as a suppression of 620 nm fluorescence. […] The reactions are incubated at 30° C for 1.5 hours. The 620nm fluorescence is then read on a Rubystar HTRF plate reader (BMG Labtechnologies) using a 50 millisecond delay followed by a 400 millisecond acquisition time window. Inhibitor IC50 values are derived from non-linear regression analysis of concentration response curves.

[2] = target: T1, purified human autoBACE-2 (Homo sapiens, UniProt Q9Y5Z0); experiment: BACE-2 Assay (BACE-HTRF assay); type: biochemical; settings: Ki calculated from IC50 using the Cheng-Prusoff equation; QSY7-EISEVNLDAEFC-Eu-amide substrate 200 nM final, pH 5.0, 30°C; read-out: BACE2 Ki
T1 sequence (Q9Y5Z0 63-473 limits assumed): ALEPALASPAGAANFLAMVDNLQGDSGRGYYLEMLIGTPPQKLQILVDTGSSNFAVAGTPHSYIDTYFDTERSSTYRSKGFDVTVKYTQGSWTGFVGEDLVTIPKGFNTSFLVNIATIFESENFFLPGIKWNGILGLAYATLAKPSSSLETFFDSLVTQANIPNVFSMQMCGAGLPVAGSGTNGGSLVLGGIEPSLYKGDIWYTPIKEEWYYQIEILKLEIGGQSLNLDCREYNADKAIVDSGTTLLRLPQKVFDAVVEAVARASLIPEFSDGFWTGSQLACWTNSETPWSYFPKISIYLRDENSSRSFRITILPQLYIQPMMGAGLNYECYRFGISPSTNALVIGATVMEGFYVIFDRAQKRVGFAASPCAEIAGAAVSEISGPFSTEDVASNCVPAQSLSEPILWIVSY
Method: Inhibitor IC50's at purified human autoBACE-2 are determined in a time-resolved endpoint proteolysis assay that measures hydrolysis of the QSY7-[…]-Eu-amide FRET peptide substrate (BACE-HTRF assay). […] Inhibitor compounds, prepared at 3x the desired final concentration in 1x BACE assay buffer (20 mM sodium acetate pH 5.0,10% glycerol, 0.1% Brij-35) supplemented with 7.5% DMSO are pre-incubated with an equal volume of autoBACE-2 enzyme diluted in 1x BACE assay buffer (final enzyme concentration 1 nM) in black 384-well NUNC plates for 30 minutes at 30°C. […] DMSO is present at 5% final concentration in the assay. Following laser excitation of sample wells at 320 nm, the fluorescence signal at 620 nm is collected for 400 ms following a 50 µs delay on a RUBYstar HTRF plate reader (BMG Labtechnologies). Raw RFU data is normalized to maximum (1.0 nM BACE/DMSO) and minimum (no enzyme/DMSO) RFU values. […] The Ki values are calculated from the IC50 using the Cheng-Prusoff equation.

soluble human BACE1 catalytic domain, sequence (P56817 75-416 limits assumed): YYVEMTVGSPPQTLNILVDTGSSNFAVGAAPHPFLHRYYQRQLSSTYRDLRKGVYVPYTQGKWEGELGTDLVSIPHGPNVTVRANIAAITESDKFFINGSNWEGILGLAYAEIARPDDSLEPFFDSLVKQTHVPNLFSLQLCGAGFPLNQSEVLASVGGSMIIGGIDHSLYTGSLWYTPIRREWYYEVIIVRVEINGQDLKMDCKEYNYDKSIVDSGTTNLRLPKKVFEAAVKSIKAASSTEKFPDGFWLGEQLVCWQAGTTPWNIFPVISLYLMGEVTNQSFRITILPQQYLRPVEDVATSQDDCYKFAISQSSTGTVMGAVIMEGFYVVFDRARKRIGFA

Row | Structure (SMILES) | Ki [1] [nM] | Ki [2] [nM]
1 | CN1C(=N)N[C@](C)(c2cc(NC(=O)c3ccc(F)cn3)ccc2F)C2(CCN(Cc3ccccc3)C2)S1(=O)=O (stereo partly drawn) [Example 1] | 3.4 | 4.5
2 | CN1C(=N)N[C@](C)(c2cc(NC(=O)c3ccc(F)cn3)ccc2F)C2(CCNC2)S1(=O)=O (stereo partly drawn) [Example 2] | 19.5 | 30
3 | CN1C(=N)N[C@](C)(c2cc(NC(=O)c3ccc(F)cn3)ccc2F)C2(CCN(S(C)(=O)=O)C2)S1(=O)=O (stereo partly drawn) [Example 3] | 5 | 9
4 | CC(=O)N1CCC2(C1)[C@@](C)(c1cc(NC(=O)c3ccc(F)cn3)ccc1F)NC(=N)N(C)S2(=O)=O (stereo partly drawn) [Example 4] | 3.7 | 9
5 | CN1C(=N)N[C@](C)(c2cc(NC(=O)c3ccc(F)cn3)ccc2F)C2(CCN(C(=O)C3CC3)C2)S1(=O)=O (stereo partly drawn) [Example 5] | 2 | 3.1
6 | CN1C(=N)N[C@](C)(c2cc(NC(=O)c3ccc(F)cn3)ccc2F)C2(CCN(C(=O)CC3CC3)C2)S1(=O)=O (stereo partly drawn) [Example 6] | 2.7 | 5.2
7 | CC(C)CC(=O)N1CCC2(C1)[C@@](C)(c1cc(NC(=O)c3ccc(F)cn3)ccc1F)NC(=N)N(C)S2(=O)=O (stereo partly drawn) [Example 7] | 2.8 | 5.7
8 | COc1ccc(C(=O)Nc2ccc(F)c([C@@]3(C)NC(=N)N(C)S(=O)(=O)[C@]34CCN(Cc3cocn3)C4)c2)nc1 [Example 18] | 47 | 158
9 | COc1ccc(C(=O)Nc2ccc(F)c([C@@]3(C)NC(=N)N(C)S(=O)(=O)[C@]34CCN(Cc3cscn3)C4)c2)nc1 [Example 19] | 20 | 70
10 | COc1ccc(C(=O)Nc2ccc(F)c([C@@]3(C)NC(=N)N(C)S(=O)(=O)[C@]34CCN(CC3CCOC3)C4)c2)nc1 (stereo partly drawn) [Example 20] | 51 | 188
11 | COc1ccc(C(=O)Nc2ccc(F)c([C@@]3(C)NC(=N)N(C)S(=O)(=O)[C@]34CCN(CC3CC(OC)C3)C4)c2)nc1 (stereo partly drawn) [Example 21] | 91 | 201
12 | COc1ccc(C(=O)Nc2ccc(F)c([C@@]3(C)NC(=N)N(C)S(=O)(=O)[C@]34CCN(Cc3ccccn3)C4)c2)nc1 [Example 22] | 26 | 79
13 | COc1ccc(C(=O)Nc2ccc(F)c([C@@]3(C)NC(=N)N(C)S(=O)(=O)[C@]34CCN(Cc3cccnc3)C4)c2)nc1 [Example 23] | 30 | 142
14 | COc1ccc(C(=O)Nc2ccc(F)c([C@@]3(C)NC(=N)N(C)S(=O)(=O)[C@]34CCN(CC3CC3)C4)c2)nc1 [Example 24] | 34 | 128
15 | COc1ccc(C(=O)Nc2ccc(F)c([C@@]3(C)NC(=N)N(C)S(=O)(=O)[C@]34CCN(Cc3cncnc3)C4)c2)nc1 [Example 26] | 51 | 329
16 | COc1ccc(C(=O)Nc2ccc(F)c([C@@]3(C)NC(=N)N(C)S(=O)(=O)[C@]34CCN(Cc3cnn(C)c3)C4)c2)nc1 [Example 27] | 54 | 388
17 | COc1ccc(C(=O)Nc2ccc(F)c([C@@]3(C)NC(=N)N(C)S(=O)(=O)[C@]34CCN(Cc3cnco3)C4)c2)nc1 [Example 28] | 28 | 237
18 | CN1C(=N)N[C@](C)(c2cc(NC(=O)c3ccc(F)cn3)ccc2F)[C@]2(CCN(Cc3ccccn3)C2)S1(=O)=O [Example 41] | 3 | 6
19 | CN1C(=N)N[C@](C)(c2cc(NC(=O)c3ccc(F)cn3)ccc2F)[C@@]2(CCN(Cc3cscn3)C2)S1(=O)=O [Example 42] | 32 | 25
20 | COC1CC(CN2CC[C@]3(C2)[C@@](C)(c2cc(NC(=O)c4ccc(F)cn4)ccc2F)NC(=N)N(C)S3(=O)=O)C1 (stereo partly drawn) [Example 44] | 120 | 52
21 | CN1C(=N)N[C@](C)(c2cc(NC(=O)c3ccc(F)cn3)ccc2F)[C@@]2(CCN(Cc3ccccn3)C2)S1(=O)=O [Example 45] | 33 | 23

— patent EP2934149B1, “C6-AZASPIRO IMINOTHIADIAZINE DIOXIDES AS BACE INHIBITORS” (Merck Sharp & Dohme Corp., priority 2012, dated 2014)
